Measurements: US20260216232A1, “SEVUPARIN FOR THE TREATMENT OF CHRONIC KIDNEY DISEASE” (Modus Therapeutics AB, priority 2022, published 2026)
Like-named read-outs stand apart in the source and are kept apart here. Marks after values point to notes of the source that are not given here.

Key:
[1] = tested on: Kidney Disease and Anemia of Kidney Disease (KD) Mouse Model; assay: Anemia of CKD mouse model (adenine rich diet), Example 3: blood and serum analysis, body weight; type: in vivo, C57BL/6J male mice
Description: (§1) All experimental procedures were approved by the Animal Care and Use Committee of University of Brescia. All animals were maintained on normal diet (“Chow” or Standard diet, 4RF21, obtained from Mucedola s.r.l) if not specified otherwise as part of the “Anemia of Chronic Kidney Disease (CKD) mouse model” experiment as described below.
(§2) Animals. The C57BL/6J male mice were purchased from Envigo RMS S.r.l.
(§3) Kidney damage, kidney disease and anemia were induced by an adenine high phosphorus diet denoted as “adenine rich diet” (ARD) (0.2% Adenine; 0.9% Phosphorus; 0.6% Calcium; 20% Casein; Cod. S1102-E750 (purchased from Charles River, Manufacturer: Ssniff Spezialdiäten GmbH).
(§4) ARD was fed to C57BL/6J male mice having reached an age of five-weeks. […] All animals were maintained on ARD or normal diet (Standard diet, 4RF21, Mucedola s.r.l), at timings and extents described in detail for each experiment below. Groups of mice were also kept under normal diet (Standard diet) as healthy control group, for each experiment. Mice had access to food and diet ad libitum.
(§5) Adenine rich diet (ARD) (0.2% Adenine; 0.9% Phosphorus; 0.6% Calcium; 20% (Ssniff Spezialdiäten GmbH), sevuparin 10 mg/kg (Opocrin S.p.A., Apotek Produktion & Laboratorier AB, subcutaneously administered, sc), erythropoietin (EPO, Darbepoietin alfa, Aranesp, AMGEN INC.) intraperitoneally adminstered, ip)
(§6) The hematological parameters hemoglobin (Hb) and hematocrit (Ht) were analyzed using the Hemo Vet Instrument (Infratech) by collecting a single drop of blood from the dorsal pedal vein. The animals weight were monitored weekly in the morning at the following time points of treatment: At start of treatment (P0); after one week of treatment (T1); after two weeks of treatment (T2); after three weeks of treatment (T3); after four weeks of treatment (T4); after five weeks of treatment (T5); after six weeks of treatment (T6); after seven weeks of treatment (T7); after eight weeks of treatment (T8); and after nine weeks of treatment (T9).
(§7) Reticulocyte hemoglobin content (Ret-He), serum hepcidin and serum creatinine (analysis performed by Izler Institute) were analyzed at the end of each experiment)
(§8) Mice were sacrificed at the indicated time points and blood and kidneys were collected for analysis at the end-point of each experiment.
(§9) At the end-point, mouse serum hepcidin was quantified using ELISA kit (Cod. SKU #HMC-001; Intrinsic LifeScience).
(§10) Serum creatinine and blood Reticulocytes-hemoglobin (Ret-He) were analyzed by IZLER Institute (Istituto Zooprofilattico Sperimentale della Lombardia e Dell′Emilia Romagna), using standard procedures.
ARD Pretreatment for 5.5 Weeks Followed by 3 or 6 Weeks Treatment with Control, Sevuparin, Erythropoietin (EPO), or a Combination of EPO and Sevuparin
C57BL/6J male mice were exposed to ARD pretreatment for 5.5 weeks followed by either 3 or 6 weeks of randomized allocation to treatments as defined below still with maintained ARD exposure. One group of mice was given normal diet (no ARD) for the entire experiment, as healthy control. • a) Treatment control: mice treated with PBS s.c. every day for 3 and 6 weeks respectively. • b) Treatment with sevuparin: mice treated with 10 mg/kg Sevuparin s.c. every day for 3 and 6 weeks respectively. • c) Treatment with EPO: mice treated with 50 IU EPO i.p. twice a week for 3 weeks and mice treated with 50 IU EPO i.p. twice a week for 3 weeks followed by treatment with 25 IU EPO i.p. once a week for the subsequent 3 weeks. • d) Treatment with EPO+sevuparin: mice treated with 10 mg/kg sevuparin s.c. every day and 50 IU EPO i.p. twice a week for 3 weeks and mice treated with 10 mg/kg sevuparin s.c. every day and 50 IU EPO i.p. twice a week for the first 3 weeks followed by treatment with 10 mg/kg sevuparin s.c. every day and 25 IU EPO i.p. once a week for the subsequent 3 weeks.

[2] = tested on: mouse kidneys; details: 3 weeks treatment, 20x magnification, compared to kidneys without sevuparin
Procedure: (§11) C57BL/6J male mice were exposed to ARD pretreatment for 9 weeks followed by 3 weeks of randomized allocation to treatments as defined below still with maintained ARD exposure. One group of mice was given normal diet (no ARD) for the entire experiment, as healthy control. • a) Treatment with control: mice treated with PBS s.c. every day for 3 weeks. • b) Treatment with sevuparin: mice treated with 10 mg/kg Sevuparin s.c. every day for 3 weeks.

[3] = tested on: Kidney Disease and Anemia of Kidney Disease (KD) Mouse Model; assay: Anemia of CKD mouse model (adenine rich diet), Example 2: blood and serum analysis, body weight; type: in vivo, C57BL/6J male mice
Description: as §1, §2, §3, §4, §5, §6, §7, §8, §9, §10
ARD Pre-Treatment for 9 Weeks Followed by 2 Weeks Treatment with Either Control, Sevuparin, Erythropoietin (EPO) or a Combination of EPO and Sevuparin, Followed by 7 Weeks Recovery without ARD but with Maintained Treatments.
(§12) C57BL/6J male mice were exposed to ARD pretreatment for 9 weeks followed by 2 weeks of randomized allocation to treatments as defined below still with maintained ARD exposure, after which ARD was omitted but treatments were maintained during 7 weeks of recovery. One group of mice was given normal diet (no ARD) for the entire experiment, as healthy control. • a) Treatment with control: mice treated with PBS s.c. every day for 2+7 weeks. • b) Treatment with sevuparin: mice treated with 10 mg/kg Sevuparin s.c. every day for 2+7 weeks. • c) Treatment with […]: mice treated with 50 IU EPO i.p. twice a week for 2+7 weeks. • d) Treatment with EPO+sevuparin: mice treated with 50 IU EPO i.p. twice a week and 10 mg/kg Sevuparin s.c. every day for 2+7 weeks.
Hemoglobin (Hb), hematocrit (Ht), weigh (wt), serum-creatitine (S-crea), reticulocyte hemoglobin (Ret-He) content and serum-hepcidin (nM) was measured in the mice.

[4] = tested on: Kidney Disease and Anemia of Kidney Disease (KD) Mouse Model
Description: as §1, §2, §3, §4, §5, §6, §7, §8, §9, §10
ARD Pretreatment for 9 Weeks Followed by 3 Weeks Treatment with Either Control or Sevuparin
as §11

[5] = tested on: factor Xa; details: definition of sevuparin; no test described; cited from earlier work
[6] = tested on: factor IIa; details: definition of sevuparin; no test described; cited from earlier work
[7] = tested on: mouse kidneys; assay: Example 2: macroscopic and histological status of kidneys (H&E, Sirius Red); type: in vivo, C57BL/6J male mice
Procedure: as §12

[8] = ARD 5.5 weeks then treatment with maintained ARD
[9] = ARD 5.5 weeks, then 3 or 6 weeks treatment with maintained ARD (time point not given), sevuparin 10 mg/kg s.c. every day, EPO 50 IU i.p. twice a week (25 IU once a week for subsequent 3 weeks), mean
[10] = 2+7 weeks treatment, compared to mice without any treatment / other treatment groups
[11] = ARD 9 weeks, then 2 weeks treatment on ARD + 7 weeks without ARD, sevuparin 10 mg/kg s.c. every day, EPO 50 IU i.p. twice a week, mean
[12] = 3 weeks treatment, compared to mice not treated with sevuparin
[13] = ARD 9 weeks, then sevuparin 10 mg/kg s.c. every day for 3 weeks with maintained ARD, mean

Substance: sevuparin
- blood level of hemoglobin (Hb), in words [1, 8]: did not increase
- body weight (wt), in words [1, 8]: did not increase
- hematocrit (Ht), in words [1, 8]: did not increase
- serum level of creatinine (s-Crea), in words ([1]; ARD 5.5 weeks then treatment with maintained ARD, compared to mice without any treatment): reduced
- Hb [1, 9]: 9.77^(3) g/dL
- Ht [1, 9]: 28.67^(8) %
- Ret-He [1, 9]: 14.45^(23)** pg
- S-Crea [1, 9]: 0.82^(18) mg/dL
- Wt [1, 9]: 17.60^(13) g
- impact on the serum level of hepcidin (FIG. 3A) ([1]; at 3 weeks treatment): beneficial impact
- beneficial impact on the serum level of hepcidin vs control (FIG. 3B) ([1]; at 6 weeks treatment): no longer present
- effect on the micrographs of the mouse kidneys (FIG. 1G) [2]: positive effect
- serum level of hepcidin, in words ([3]; 2+7 weeks treatment): markedly reduced
- blood level of reticulocyte hemoglobin (Ret-HE), in words [3, 10]: increased
- body weight (wt), in words [3, 10]: increased
- hematocrit (Ht), in words [3, 10]: increased
- serum level of creatinine (s-Crea), in words [3, 10]: reduced
- Hb [3, 11]: 9.45^(3) g/dL
- Ht [3, 11]: 27.75^(8) %
- Ret-He [3, 11]: 15.78^(23) pg
- S-Crea [3, 11]: 0.78^(18) mg/dL
- S-Hepcidin [3, 11]: 22.32^(28) nM
- Wt [3, 11]: 25.75^(13) g
- Hematocrit levels, in words [4, 12]: increased
- Hemoglobin blood levels, in words [4, 12]: increased
- blood level of reticulocyte-hemoglobin (Ret-He), in words [4, 12]: increased
- body weight, in words [4, 12]: gained body weight
- serum creatinine level, in words [4, 12]: increased
- serum level of hepcidin, in words [4, 12]: reduced
- S-Hepcidin ([4]; ARD 9 weeks, then sevuparin 10 mg/kg s.c. every day for 3 weeks with maintained ARD, ELISA, mean): 36.83^(18) nM
- Hb [4, 13]: 10.80^(3) g/dL
- Ht [4, 13]: 31.67^(6) %
- Ret-He [4, 13]: 14.33^(15) pg
- S-Crea [4, 13]: 0.73^(12) mg/dL
- Wt [4, 13]: 15.00^(9) g
- antifactor Xa activity [5]: up to 10 IU/mg
- antifactor 11a activity [6]: up to 10 IU/mg
- kidney damage, H&E staining (FIG. 2B) ([7]; 40x magnification, 11 weeks of adenine diet, compared to the untreated control): reduced the damage
- collagen deposits (fibrosis), Sirius Red Staining (FIG. 2B) ([7]; 40x magnification, compared to AD 11 weeks+PBS): reduction of the collagen deposits
- physical status of the mouse kidneys, macroscopic photographs (FIG. 2A) ([7]; compared to mouse kidneys that had not received the same therapy): substantially less cysts, more normal colour and a more homogenous appearance
